≈ marks a conversion by molar mass, not a printed value. Where a name gives a salt, the structure may show the parent alone. Read-outs that look alike come from different tables or passages of the source.

One series is described as follows: in vitro. How it is done:
The compounds were analyzed for viability of the human pro-monocytic cell line U-937 (ATCC CRL- 1593.2TM) using an MTT (3-(4,5-dimethylthiazol-2-yl)-2,5- diphenyltetrazolium bromide) assay based on a previously described methodology, assessing cytotoxic activity. The resulting compounds were determined by measuring mitochondrial dehydrogenase activity, adding […] of MTT solution (0.5 mg/mL) and incubation at 37 °C for 3 h. Cell viability was defined from the quantity of formazan produced and the intensity of color (absorbance) registered through optical density (O.D.) obtained at 570 nm in a (VarioskanTM Flash Multimode Reader—Thermo Scientific, Waltham, MA, USA) spectrophotometer. As a negative control, isolated cells were cultured (without the compounds) to observe viability. […] We performed two independent tests with each concentration, in triplicate.
Cytotoxicity was determined according to the viability and mortality percentages obtained in each experimental condition (synthesized compounds, amphotericin B, benznidazole, chloroquine, and culture medium). Viability percentages were first calculated using Equation (1). (1) % Viability=O.D exposed cells÷O.D Control cells × 100 Then, cell growth inhibition percentage was calculated as 100 - % viability.
The cell growth inhibition percentages were used to calculate median lethal concentrations (LC50) using Probit analysis.

For series [1], the system named is Leishmania braziliensis amastigotes. The series is described as follows: In vitro antileishmanial activity, intracellular amastigotes (EGFP, flow cytometry). The format is cell-based. Conditions: intracellular amastigotes in U-937 cells, 72 h, mean ± SD. As to the method:
The activities of the derivatives in L. braziliensis intracellular amastigotes, transfected with the green fluorescent protein gene (MHOM/CO/88/UA301-EGFP) were evaluated. Initially, human U-937 cells at a density of 3 × 10^5 cells/mL in RPMI 1640 and 0.1 μg/mL PMA (phorbol-12-myristate-13-acetate) were dispensed in a 24-well microplate and incubated at 37 °C, and 5% CO2. At 72 h of incubation, the cells were infected with growing (stationary phase) promastigotes; 15 parasites per cell. The plates were incubated at 34 °C and 5% CO2 for 3 h and the cells then washed twice with phosphate buffer solution (PBS) to eliminate non-internalized parasites. Fresh RPMI-1640 was added to each well (1 mL) and the plates were incubated again to complete the infection. […] The cells were then removed from the bottom plate with a trypsin/EDTA solution (250 mg), and centrifuged at 1100 rpm for 10 min at 4 °C; the supernatant was discarded and the cells were washed with 1 mL of cold PBS and centrifuged twice at 1100 rpm for 10 min at 4 °C. After this final wash, the supernatant was discarded and the cells were suspended in 500 μL of PBS.
The cells were run in a flow cytometer (Cytomics FC 500MPL), reading at 488 nm (exciting) and 525 nm (emitting) over an argon laser, and counting 10,000 events. Infected cells were determined according to green fluorescence events (parasites). Infected cells exposed to the control drug (amphotericin B) were used as antileishmanial activity controls (positive control). Infected cells incubated in the absence of any compound or drug were used as infection controls (negative control). Non-specific fluorescence was corrected by subtracting fluorescence from unstained cells. All determinations were performed in triplicate, in at least two independent experiments.
(§1) Data for percentages of parasite reduction or inhibition were used to calculate the EC50 using Probit linear regression modeling. […] The selectivity index (SI) was calculated dividing cytotoxic activity by anti-parasitic activity using the following formula: SI = CL50 ÷ CE50.

For series [2], the system named is Plasmodium falciparum 3D7. Nature of the series: In vitro antiplasmodial activity (LDH, Malstat). Format: cell-based. Conditions: for EC50: Plasmodium falciparum. As to the method:
Cultures of asynchronous P. falciparum 3D7 strains were adjusted for 0.5% parasitemia and 1% hematocrit in RPMI medium enriched with 3% lipid-rich bovine serum albumin—Albumax II. […] The plates were incubated for 48 h at 37 °C in an atmosphere of N2 (90%), CO2 (5%) and O2 (5%). After incubation, the parasites were harvested and subjected to three 20-min freeze-thaw cycles. At the same time, 100 µL of Malstat reagent (400 µL of Triton X-100 in 80 mL of deionized water, 4 g of L-lactate, 1.32 g of Tris buffer, and 0.022 g of adenine acetylpyridine dinucleotide in 200 mL of deionized water; pH 9.0), and […] of NBT/PES solution (0.16 g of nitroblue-tetrazolium salt, and 0.08 g of phenazine sulfate in 100 mL of deionized water) were added to each well of an additional 96-well plate. After freezing and thawing cycles, the culture in each of the wells on the first plate was re-suspended by pipetting, and 15 µL was removed from each well and added to the corresponding well on the additional plate (containing the Malstat and NBT/PES reagents). After one hour of incubation in the dark, the color development of the lactate dehidrogenase (LDH) reaction was read on a spectrofluorometer (Varioskan, Thermo, Waltham, MA, USA) at 650 nm. The color intensity in each experimental condition was recorded in fluorescent units (F.U). Non-specific fluorescence was corrected by subtracting F.U. from the blanks. The entire experiment was performed in triplicate in at least two independent experiments. Chloroquine (QC) was used as a positive control and the culture medium was used as a negative control.
The antiplasmodial activity of each compound was evaluated through reduction in parasite growth, calculated according to Equation (2):(2) % parasite inhibition=100−F.U exposed parasites÷F.U non exposed parasites × 100
as §1

For the next series, the system named is P. falciparum. Set-up: method as in ref 42 = [42]; 42. Sudi S. Hassan W.R.M. Ali A.H. Basir R. Embi N. Sidek H.M. A derivative of cinnamic acid, methyl-4-hydroxycinnamate modulates inflammatory cytokine levels in malaria-infected mice through inhibiti. The conditions noted are these: cited from earlier work.
For the next series, the system named is Leishmania amazonensis. Set-up: method as in Lima et al. (2016) 46. Conditions: ref Lima et al. (2016) 46; cited from earlier work.
Another series deals with Trypanosoma brucei. Set-up: method as in Steverding et al. (2016) 51. The conditions noted are these: ref Steverding et al. (2016) 51; cited from earlier work.
Another series deals with L. amazonensis. Details: method as in ref 41 = [41]; 41. Monzote L. Córdova W.H.P. García M. Piñón A. Setzer W.N. In-vitro and In-vivo Activities of Phenolic Compounds Against Cutaneous Leishmaniasis Rec. Nat. Prod. 2016 10 269 276. The conditions noted are these: cited from earlier work.
Setting [3] is: 3D7, 48 h, read-out: Plasmodium falciparum EC50, 3D7 strain, 48 h, mean ± SD.

Compound `C[C@@H]1[C@H](O)[C@@H](C)/C=C/C=C/C=C/C=C/C=C/C=C/C=C/[C@H](O[C@@H]2O[C@H](C)[C@@H](O)[C@H](N)[C@@H]2O)C[C@@H]2O[C@](O)(C[C@@H](O)C[C@@H](O)[C@H](O)CC[C@@H](O)C[C@@H](O)CC(=O)O[C@H]1C)C[C@H](O)[C@H]2C(=O)O` [AMB, amphotericin B, reference compound] gave a CC50 in the series “in vitro” of 38.4 ± 6.3 µg/mL (≈ 41.6 µM). Moreover, it took 0.3 ± 0.07 µg/mL (≈ 0.325 µM) to reach a half-maximal effect in series [1] (EC50).

As for `CCN(CC)CCCC(C)Nc1ccnc2cc(Cl)ccc12` (stereo not drawn) [CQ, chloroquine diphosphate salt, reference compound], the concentration for a half-maximal effect (EC50) in series [2] (3D7, 48 h, read-out: Plasmodium falciparum EC50) amounted to 3.35 ± 0.39 µg/mL.

For the compound `COC(=O)/C=C/c1ccc(O)cc1` [Compound 1, methyl p-coumarate], the 50% effective concentration (EC50) in series [2] (3D7 strain, 48 h, mean ± SD, read-out: Plasmodium falciparum EC50) is 64.6 ± 2.89 µg/mL (≈ 362 µM); in series [1] it was 8.28 ± 0.14 µg/mL (≈ 46.5 µM). In addition, the CC50 in the series “in vitro” is 6.26 ± 0.03 µg/mL (≈ 35.1 µM). In addition, the “activity against P. falciparum” value with P. falciparum was “presents activity”.

As to `CCOC(=O)/C=C/c1ccc(O)cc1` [Compound 2, ethyl p-coumarate], the EC50 was 110 ± 30.8 µg/mL (≈ 574 µM) in series [2] (setting [3]) and 4.91 ± 0.64 µg/mL (≈ 25.5 µM) in series [1]. The compound further showed a CC50 in “in vitro” of 1.06 ± 1.08 µg/mL (≈ 5.51 µM).

For `CCCOC(=O)/C=C/c1ccc(O)cc1` [Compound 3, propyl p-coumarate], the concentration for a half-maximal effect (EC50) in series [2] (setting [3]) was 139 ± 4.07 µg/mL (≈ 674 µM); in series [1], 6.3 ± 1.14 µg/mL (≈ 30.5 µM). The CC50 in “in vitro” was found to be 11.9 ± 0.8 µg/mL (≈ 57.7 µM).

On to `CC(C)OC(=O)/C=C/c1ccc(O)cc1` [Compound 4, isopropyl p-coumarate], for which the results for the EC50 in series [2] (setting [3]) and in series [1] were 106 ± 9.97 µg/mL (≈ 514 µM) and 28.33 ± 0.27 µg/mL (≈ 137 µM), respectively. In addition, the CC50 in “in vitro” turned out to be 96.2 ± 18.9 µg/mL (≈ 467 µM).

As to `COCCOC(=O)/C=C/c1ccc(O)cc1` [Compound 5, methoxy-ethyl p-coumarate], the values for the EC50 in series [2] (setting [3]) and in series [1] were 98.7 ± 17.7 µg/mL (≈ 444 µM) and 87 ± 18.1 µg/mL (≈ 391 µM), respectively. The compound further had a CC50 in the series “in vitro” of 127 ± 16.5 µg/mL (≈ 570 µM).

`CCCCOC(=O)/C=C/c1ccc(O)cc1` [Compound 6, butyl p-coumarate]: the figures for the concentration for a half-maximal effect (EC50) in series [2] (setting [3]) and in series [1] were 199 ± 7.9 µg/mL (≈ 903 µM) and 323 ± 50 µg/mL (≈ 1470 µM), respectively. In “in vitro”, the CC50 was 30.9 ± 6.32 µg/mL (≈ 140 µM).

In the case of `CCCCCOC(=O)/C=C/c1ccc(O)cc1` [Compound 7, pentyl p-coumarate], in series [2] (3D7 strain, 48 h, mean ± SD), the “Plasmodium falciparum EC50” value was found to be 95.48 ± 1.84 µg/mL. The 50% effective concentration (EC50) in series [2] (setting [3]) came to 156 ± 8.2 µg/mL (≈ 667 µM); in series [1], 32 ± 5.05 µg/mL (≈ 137 µM). The compound further had a CC50 in “in vitro” of 16.1 ± 3.81 µg/mL (≈ 68.7 µM).

On to `CC(C)CCOC(=O)/C=C/c1ccc(O)cc1` [Compound 8, isopentyl p-coumarate], for which the “Plasmodium falciparum EC50” value in series [2] (3D7 strain, 48 h, mean ± SD) amounted to 156.37 ± 8.2 µg/mL. The EC50 in series [2] (setting [3]) was found to be 95.5 ± 1.84 µg/mL (≈ 408 µM); in series [1] it was 6.02 ± 0.22 µg/mL (≈ 25.7 µM). Moreover, the CC50 in the series “in vitro” was 19.6 ± 1.76 µg/mL (≈ 83.6 µM).

Turning to `CCCCCCOC(=O)/C=C/c1ccc(O)cc1` [Compound 9, hexyl p-coumarate], the values for the EC50 in series [2] (setting [3]) and in series [1] were 206 ± 46.4 µg/mL (≈ 831 µM) and 4.14 ± 0.55 µg/mL (≈ 16.7 µM), respectively. The same compound came in with a CC50 in “in vitro” of 11.2 ± 0.86 µg/mL (≈ 45.3 µM).

With `CCCCCCCCCCCCOC(=O)/C=C/c1ccc(O)cc1` [Compound 10, dodecyl p-coumarate], the EC50 was 81.2 ± 8.54 µg/mL (≈ 244 µM) in series [2] (setting [3]) and 16.3 ± 0.49 µg/mL (≈ 49.1 µM) in series [1]. This compound also registered a CC50 in “in vitro” of 15.4 ± 1.84 µg/mL (≈ 46.4 µM).

With `Cc1ccc(COC(=O)/C=C/c2ccc(O)cc2)cc1` [Compound 11, 4-methylbenzyl p-coumarate], the figures for the concentration giving a half-maximal response (EC50) in series [2] (setting [3]) and in series [1] were 84 ± 15.3 µg/mL (≈ 313 µM) and 5.69 ± 0.3 µg/mL (≈ 21.2 µM), respectively. Besides, the CC50 in “in vitro” was determined as 20.8 ± 3.47 µg/mL (≈ 77.6 µM).

Take `CC(C)c1ccc(COC(=O)/C=C/c2ccc(O)cc2)cc1` [Compound 12, 4-isopropylbenzyl p-coumarate]: the EC50 in series [2] (setting [3]) is 93.7 ± 14.2 µg/mL (≈ 316 µM); in series [1], 11.2 ± 0.2 µg/mL (≈ 37.8 µM). For the same compound, the CC50 in “in vitro” was determined as 35.2 ± 13.9 µg/mL (≈ 119 µM).

Consider `CCOC(=O)/C=C/c1ccc(O)c(O)c1` [ethyl caffeate], for which, in the series with Leishmania amazonensis, the “activity against Leishmania amazonensis” value is “no activity”.

For `CC(C)CCOC(=O)/C=C/c1ccc(O)c(O)c1` [isopentyl caffeate], the “antiparasitic activity against Trypanosoma brucei” value in the series with Trypanosoma brucei is on record as “antiparasitic activity”.

Consider `O=C(O)C=Cc1ccc(O)cc1` [p-Coumaric acid], for which, in the series on L. amazonensis, the “antiparasitic activity against L. amazonensis” value is “presents antiparasitic activity”.

The values are drawn from article PMC7397144, “Alkyl and Aryl Derivatives Based on p-Coumaric Acid Modification and Inhibitory Action against Leishmania braziliensis and Plasmodium falciparum” (Molecules, 2020).
